Results on 15 compounds are retold here after patent publication US10150760B2, “Compounds for use in preparing heterocyclic triazole agonists of the APJ receptor” (AMGEN INC., priority 2016, dated 2018).

human APJ receptor, sequence (P35414 whole entry): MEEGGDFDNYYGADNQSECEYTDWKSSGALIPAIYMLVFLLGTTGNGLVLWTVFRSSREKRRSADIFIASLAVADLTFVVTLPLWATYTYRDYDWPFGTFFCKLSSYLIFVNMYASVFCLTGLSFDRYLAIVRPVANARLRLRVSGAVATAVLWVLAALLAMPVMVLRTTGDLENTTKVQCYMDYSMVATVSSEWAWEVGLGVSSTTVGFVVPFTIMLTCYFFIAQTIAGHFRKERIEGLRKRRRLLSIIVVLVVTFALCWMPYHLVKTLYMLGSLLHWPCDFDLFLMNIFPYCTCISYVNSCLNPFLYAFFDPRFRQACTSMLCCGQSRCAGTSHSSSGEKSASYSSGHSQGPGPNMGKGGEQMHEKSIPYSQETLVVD

This assay deals with human APJ receptor (Homo sapiens (Human), UniProt P35414). The experiment in a line: [35S]GTPγS binding assay on membranes from CHO cells stably expressing human APJ receptor. In kind it is biochemical. The settings on record: read-out: Activity hAPJ SPA EC50 IP. In outline:
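Membranes from CHO cells stably expressing human APJ incubated with ligand, 0.2 nM [35S]GTPγS and WGA SPA beads in HEPES pH 7.5 with 5 mM MgCl2, 200 mM NaCl, 3 μM GDP, 90 min at RT. Nonspecific binding defined with 100 μM GTPγS; EC50 by non-linear regression.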
On the technique in general: Binding of GTPγS marks nucleotide exchange on a G protein.
In general, EC50 refers to the concentration at which the effect is half-maximal. Consider `COCC1(n2c(NS(=O)(=O)[C@@H](C)[C@H](OC)c3ncc(Cl)cn3)nnc2[C@H]2CCOC2)CC1` (single isomer, unassigned) [Example 340.0, (1R,2S)-1-(5-chloro-2-pyrimidinyl)-1-methoxy-N-(4-(1-(methoxymethyl)cyclopropyl)-5-((3R)-tetrahydro-3-furanyl)-4H-1,2,4-triazol-3-yl)-2-propanesulfonamide or (1R,2S)-1-(5-chloro-2-pyrimidinyl)-1-methoxy-N-(4-(1-(methoxymethyl)cyclopropyl)-5-((3S)-tetrahydro-3-furanyl)-4H-1,2,4-triazol-3-yl)-2-propanesulfonamide], for which the EC50 stood at 0.15 µM. The figure for `COCC1(n2c(NS(=O)(=O)[C@@H](C)[C@H](OC)c3ncc(Cl)cn3)nnc2[C@H]2COCCO2)CC1` (single isomer, unassigned) [Example 342.0, (1R,2S)-N-(5-((S)-1,4-dioxan-2-yl)-4-(1-(methoxymethyl)cyclopropyl)-4H-1,2,4-triazol-3-yl)-1-(5-chloropyrimidin-2-yl)-1-methoxypropane-2-sulfonamide or (1R,2S)-N-(5-((R)-1,4-dioxan-2-yl)-4-(1-(methoxymethyl)cyclopropyl)-4H-1,2,4-triazol-3-yl)-1-(5-chloropyrimidin-2-yl)-1-methoxypropane-2-sulfonamide] is 0.1 µM; for `COc1cccc(OC)c1-n1c(NS(=O)(=O)[C@@H](C)[C@H](C)c2ncc(Cl)cn2)nnc1[C@H]1CCC(=O)N1` (single isomer, unassigned) [Example 343.0, (2S,3R)-3-(5-chloropyrimidin-2-yl)-N-(4-(2,6-dimethoxyphenyl)-5-((R)-5-oxopyrrolidin-2-yl)-4H-1,2,4-triazol-3-yl)butane-2-sulfonamide or (2S,3R)-3-(5-chloropyrimidin-2-yl)-N-(4-(2,6-dimethoxyphenyl)-5-((S)-5-oxopyrrolidin-2-yl)-4H-1,2,4-triazol-3-yl)butane-2-sulfonamide] it is 0.73 µM. In the case of `COc1cccc(OC)c1-n1c(NS(=O)(=O)[C@@H](C)[C@H](C)c2ncc(Cl)cn2)nnc1[C@H]1CCC(=O)N1` (single isomer, unassigned) [Example 344.0, (2S,3R)-3-(5-chloropyrimidin-2-yl)-N-(4-(2,6-dimethoxyphenyl)-5-((R)-5-oxopyrrolidin-2-yl)-4H-1,2,4-triazol-3-yl)butane-2-sulfonamide or (2S,3R)-3-(5-chloropyrimidin-2-yl)-N-(4-(2,6-dimethoxyphenyl)-5-((S)-5-oxopyrrolidin-2-yl)-4H-1,2,4-triazol-3-yl)butane-2-sulfonamide], the EC50 came to 0.23 µM. In the case of `COCC(COC)n1c(NS(=O)(=O)[C@@H](C)[C@@H](OC(C)C)c2ncc(Cl)cn2)nnc1[C@@H]1COCCO1` (single isomer, unassigned) [Example 356.0, (1S,2S)-1-(5-chloro-2-pyrimidinyl)-N-(4-(1,3-dimethoxy-2-propanyl)-5-((2R)-1,4-dioxan-2-yl)-4H-1,2,4-triazol-3-yl)-1-(2-propanyloxy)-2-propanesulfonamide or (1S,2S)-1-(5-chloro-2-pyrimidinyl)-N-(4-(1,3-dimethoxy-2-propanyl)-5-((2S)-1,4-dioxan-2-yl)-4H-1,2,4-triazol-3-yl)-1-(2-propanyloxy)-2-propanesulfonamide], the EC50 amounted to 0.026 µM. Take `COCC(COC)n1c(NS(=O)(=O)[C@@H](C)[C@@H](OC(C)C)c2ncc(Cl)cn2)nnc1[C@@H]1COCCO1` (single isomer, unassigned) [Example 357.0, (1S,2S)-1-(5-chloro-2-pyrimidinyl)-N-(4-(1,3-dimethoxy-2-propanyl)-5-((2R)-1,4-dioxan-2-yl)-4H-1,2,4-triazol-3-yl)-1-(2-propanyloxy)-2-propanesulfonamide or (1S,2S)-1-(5-chloro-2-pyrimidinyl)-N-(4-(1,3-dimethoxy-2-propanyl)-5-((2S)-1,4-dioxan-2-yl)-4H-1,2,4-triazol-3-yl)-1-(2-propanyloxy)-2-propanesulfonamide]: the EC50 amounted to 0.28 µM.

As to `COc1ncnc(OC)c1-n1c(NS(=O)(=O)[C@@H](C)[C@H](C)c2ccc(C#N)cn2)nnc1[C@H]1CCOC1` (single isomer, unassigned) [Example 382.0, (2S,3R)-3-(5-cyano-2-pyridinyl)-N-(4-(4,6-dimethoxy-5-pyrimidinyl)-5-((3R)-tetrahydro-3-furanyl)-4H-1,2,4-triazol-3-yl)-2-butanesulfonamide or (2S,3R)-3-(5-cyano-2-pyridinyl)-N-(4-(4,6-dimethoxy-5-pyrimidinyl)-5-((3S)-tetrahydro-3-furanyl)-4H-1,2,4-triazol-3-yl)-2-butanesulfonamide], the EC50 is 0.27 µM. Consider `COc1ncnc(OC)c1-n1c(NS(=O)(=O)[C@@H](C)[C@H](C)c2ccc(C#N)cn2)nnc1[C@H]1CCOC1` (single isomer, unassigned) [Example 383.0, (2S,3R)-3-(5-cyano-2-pyridinyl)-N-(4-(4,6-dimethoxy-5-pyrimidinyl)-5-((3R)-tetrahydro-3-furanyl)-4H-1,2,4-triazol-3-yl)-2-butanesulfonamide or (2S,3R)-3-(5-cyano-2-pyridinyl)-N-(4-(4,6-dimethoxy-5-pyrimidinyl)-5-((3S)-tetrahydro-3-furanyl)-4H-1,2,4-triazol-3-yl)-2-butanesulfonamide], for which the EC50 came out at 0.68 µM. `COc1cccc(OC)c1-n1c(NS(=O)(=O)CCc2ncc(Cl)cn2)nnc1[C@H]1CCOC1` (single isomer, unassigned) [Example 390.0]: the EC50 amounted to 0.33 µM. Take `COc1cccc(OC)c1-n1c(NS(=O)(=O)[C@@H](C)[C@H](C)c2ncc(Cl)cn2)nnc1[C@@H]1COC(C)(C)C1` (single isomer, unassigned) [Example 393.0, (2S,3R)-3-(5-chloro-2-pyrimidinyl)-N-(4-(2,6-dimethoxyphenyl)-5-((3R)-5,5-dimethyltetrahydro-3-furanyl)-4H-1,2,4-triazol-3-yl)-2-butanesulfonamide or (2S,3R)-3-(5-chloro-2-pyrimidinyl)-N-(4-(2,6-dimethoxyphenyl)-5-((3S)-5,5-dimethyltetrahydro-3-furanyl)-4H-1,2,4-triazol-3-yl)-2-butanesulfonamide]: the EC50 was 0.018 µM.

Regarding `COc1cccc(OC)c1-n1c(NS(=O)(=O)[C@@H](C)[C@H](C)c2ncc(Cl)cn2)nnc1[C@@H]1COC(C)(C)C1` (single isomer, unassigned) [Example 394.0, (2S,3R)-3-(5-chloro-2-pyrimidinyl)-N-(4-(2,6-dimethoxyphenyl)-5-((3R)-5,5-dimethyltetrahydro-3-furanyl)-4H-1,2,4-triazol-3-yl)-2-butanesulfonamide or (2S,3R)-3-(5-chloro-2-pyrimidinyl)-N-(4-(2,6-dimethoxyphenyl)-5-((3S)-5,5-dimethyltetrahydro-3-furanyl)-4H-1,2,4-triazol-3-yl)-2-butanesulfonamide], the EC50 came out at 0.02 µM. Regarding `COc1cccc(OC)c1-n1c(NS(=O)(=O)[C@@H](C)[C@H](C)c2ncc(F)cn2)nnc1[C@@H]1COC(C)(C)C1` (single isomer, unassigned) [Example 395.0, (2S,3R)-N-(4-(2,6-dimethoxyphenyl)-5-((3R)-5,5-dimethyltetrahydro-3-furanyl)-4H-1,2,4-triazol-3-yl)-3-(5-fluoro-2-pyrimidinyl)-2-butanesulfonamide or (2S,3R)-N-(4-(2,6-dimethoxyphenyl)-5-((3S)-5,5-dimethyltetrahydro-3-furanyl)-4H-1,2,4-triazol-3-yl)-3-(5-fluoro-2-pyrimidinyl)-2-butanesulfonamide], the EC50 stood at 0.067 µM. `COc1cccc(OC)c1-n1c(NS(=O)(=O)[C@@H](C)[C@H](C)c2ncc(F)cn2)nnc1[C@@H]1COC(C)(C)C1` (single isomer, unassigned) [Example 396.0, (2S,3R)-N-(4-(2,6-dimethoxyphenyl)-5-((3R)-5,5-dimethyltetrahydro-3-furanyl)-4H-1,2,4-triazol-3-yl)-3-(5-fluoro-2-pyrimidinyl)-2-butanesulfonamide or (2S,3R)-N-(4-(2,6-dimethoxyphenyl)-5-((3S)-5,5-dimethyltetrahydro-3-furanyl)-4H-1,2,4-triazol-3-yl)-3-(5-fluoro-2-pyrimidinyl)-2-butanesulfonamide]: the EC50 stood at 0.058 µM.

`COc1cccc(OC)c1-n1c(NS(=O)(=O)[C@@H](C)[C@H](OC)c2ncc(Cl)cn2)nnc1[C@H]1CCC(=O)N1` (single isomer, unassigned) [Example 397.0, (1R,2S)-1-(5-chloro-2-pyrimidinyl)-N-(4-(2,6-dimethoxyphenyl)-5-((2R)-5-oxo-2-pyrrolidinyl)-4H-1,2,4-triazol-3-yl)-1-methoxy-2-propanesulfonamide or (1R,2S)-1-(5-chloro-2-pyrimidinyl)-N-(4-(2,6-dimethoxyphenyl)-5-((2S)-5-oxo-2-pyrrolidinyl)-4H-1,2,4-triazol-3-yl)-1-methoxy-2-propanesulfonamide]: the EC50 stood at 0.16 µM. For `COc1cccc(OC)c1-n1c(NS(=O)(=O)[C@@H](C)[C@H](OC)c2ncc(Cl)cn2)nnc1[C@H]1CCC(=O)N1` (single isomer, unassigned) [Example 398.0, (1R,2S)-1-(5-chloro-2-pyrimidinyl)-N-(4-(2,6-dimethoxyphenyl)-5-((2R)-5-oxo-2-pyrrolidinyl)-4H-1,2,4-triazol-3-yl)-1-methoxy-2-propanesulfonamide or (1R,2S)-1-(5-chloro-2-pyrimidinyl)-N-(4-(2,6-dimethoxyphenyl)-5-((2S)-5-oxo-2-pyrrolidinyl)-4H-1,2,4-triazol-3-yl)-1-methoxy-2-propanesulfonamide], the EC50 came out at 0.56 µM.
